# “And” between values parts separate entries of the source, which are not always exact repeats. Equal values may be shown once.
# Tests used:
# [1] = mouse, in vivo, ip, 40 mg/kg; cited from earlier work
# [2] = biological target: T1, wild-type KV11.1 (Homo sapiens, UniProt Q12809); test: cell-based
# [3] = biological target: T1, wild-type KV11.1
# [4] = biological target: T2, WT Kv11.1 (Homo sapiens, UniProt Q12809); details: 24 hour and washout, individual wells
# Text: plot of hits tested for 24-h our WT toxicity. Each point repres ents the med ia n robust Z score
# after 24-hour treatm ent and washout in cells ex pressing WT.
# robust Z scores be low bas eli ne function).
# second ary screens w ere perform ed i n triplicate us ing 1 0 µ M drug treatme nt to assess: 1)
# acute channel block, measur ed after a 15-minute inc ubati on with the drug present duri ng
# recordi ngs; and 2) t oxicit y in W T channels, assesse d af t er a 24-hour drug ex posure fol low ed
# (C) Tl+-measurements after 24-hour treatment and washout in HEK cells
# [5] = humans; cited from earlier work
# [6] = biological target: Kv11.1 missense variants, residues 536–628 (Homo sapiens, UniProt Q12809, Y475A); test: Multiplexed assay of variant effect (saturation mutagenesis, FACS surface trafficking); details: missense variant Y475A
# Method: (§1) Cells were grown to 40%–60% confluence and transiently transfected first with Bxb1 integrase (pCAG–NLS–HA–Bxb1) using FuGENE 6 (Promega), followed by KCNH2 variant libraries 24 hours later. On day 6, cells were induced with 1 μg/mL doxycycline. Integrated cell lines expressed a single variant alongside mCherry, while nonintegrated cells were tagBFP-positive and mCherry-negative.
# (§2) Saturation mutagenesis of Kv11.1 was performed using a modified promoterless dsRed-Express derivative plasmid. WT KCNH2 was inserted adjacent to an AttB site, and NdeI/BglII sites were created via synonymous mutations. […] These were purified, ligated, and electroporated into MegaX DH10B Electrocomp Cells.
# (§3) The mutant pool was subcloned into the AttB-KCNH2-HA:IRES:mCherry plasmid, with an 18-mer poly-N barcode inserted adjacent to the AttB site. Each cloning step was validated via Sanger sequencing. To link barcodes with mutants, the library was digested, ligated, and PCR amplified. Final products were purified and sequenced on an Illumina NovaSeq. Reads were analyzed with a custom Python script to identify barcodes linked to single mutations.
# (§4) HEK293T cells were cultured in αMEM (Corning) with 10% FBS and 1% GlutaMax at 37°C with 5% CO2. The KCNH2 variant library was integrated into a HEK293T “landing pad” cell line containing an AttP site between a tetracycline-inducible promoter and a blue fluorescent protein gene.
# (§5) Cells were transfected using FuGENE 6, first with a plasmid expressing Bxb1 integrase (pCAG–NLS–HA–Bxb1) and then, the following day, with the KCNH2 variant library. On day 6, cells were incubated with 1 μg/mL doxycycline to induce expression from the landing pad’s promoter. Resulting stable cell lines expressed one variant and mCherry, while nonintegrated cells expressed tagBFP and were mCherry-negative.
# (§6) Stable HEK293T cell lines were cultured in T75 flasks until 80%–90% confluent. […] After treatments, high-throughput quantitation was performed at the Vanderbilt University Medical Center Flow Cytometry Shared Resource Core (FCSR).
# (§7) The treated HEK293T library was sorted via FACS to isolate cells with high mCherry expression and successful AttB plasmid integration. […] Sorted cells were repopulated and prepared for freezing, pelleted at 1 million cells per tube.
# (§8) DNA was isolated from cell pools (100 μL QuickExtract per 1 million cells) and the barcode was PCR amplified for Illumina sequencing using Q5 polymerase (25–35 cycles). Sequencing reads were demultiplexed and analyzed using custom Python scripts (https://github.com/kroncke-lab/KCNH2_DMS) to identify barcodes.
# (§9) The scores were then averaged across the 4 replicate experiments (separate transfections of the mutant library pool).
# [7] = biological target: Kv11.1 missense variants, residues 536–628 (Homo sapiens, UniProt Q12809, Y475D); test: as above; details: missense variant Y475D
# Method: as §1, §2, §3, §4, §5, §6, §7, §8, §9
# [8] = test system: Kv11.1 missense variants, residues 536–628; test: as above
# Method: as §1, §2, §3, §4, §5, §6, §7, §8, §9
# [9] = cited from earlier work
# [10] = biological target: T2, WT Kv11.1; test: Whole-cell patch-clamp electrophysiology, drug in bath solution, WT; assay type: cell-based; parameters: expressed in transfected cells; details: individual replicates
# Text: Peak stea dy-sta te current was
# Tail current was fit with a […]
# T2 sequence (Q12809 whole entry): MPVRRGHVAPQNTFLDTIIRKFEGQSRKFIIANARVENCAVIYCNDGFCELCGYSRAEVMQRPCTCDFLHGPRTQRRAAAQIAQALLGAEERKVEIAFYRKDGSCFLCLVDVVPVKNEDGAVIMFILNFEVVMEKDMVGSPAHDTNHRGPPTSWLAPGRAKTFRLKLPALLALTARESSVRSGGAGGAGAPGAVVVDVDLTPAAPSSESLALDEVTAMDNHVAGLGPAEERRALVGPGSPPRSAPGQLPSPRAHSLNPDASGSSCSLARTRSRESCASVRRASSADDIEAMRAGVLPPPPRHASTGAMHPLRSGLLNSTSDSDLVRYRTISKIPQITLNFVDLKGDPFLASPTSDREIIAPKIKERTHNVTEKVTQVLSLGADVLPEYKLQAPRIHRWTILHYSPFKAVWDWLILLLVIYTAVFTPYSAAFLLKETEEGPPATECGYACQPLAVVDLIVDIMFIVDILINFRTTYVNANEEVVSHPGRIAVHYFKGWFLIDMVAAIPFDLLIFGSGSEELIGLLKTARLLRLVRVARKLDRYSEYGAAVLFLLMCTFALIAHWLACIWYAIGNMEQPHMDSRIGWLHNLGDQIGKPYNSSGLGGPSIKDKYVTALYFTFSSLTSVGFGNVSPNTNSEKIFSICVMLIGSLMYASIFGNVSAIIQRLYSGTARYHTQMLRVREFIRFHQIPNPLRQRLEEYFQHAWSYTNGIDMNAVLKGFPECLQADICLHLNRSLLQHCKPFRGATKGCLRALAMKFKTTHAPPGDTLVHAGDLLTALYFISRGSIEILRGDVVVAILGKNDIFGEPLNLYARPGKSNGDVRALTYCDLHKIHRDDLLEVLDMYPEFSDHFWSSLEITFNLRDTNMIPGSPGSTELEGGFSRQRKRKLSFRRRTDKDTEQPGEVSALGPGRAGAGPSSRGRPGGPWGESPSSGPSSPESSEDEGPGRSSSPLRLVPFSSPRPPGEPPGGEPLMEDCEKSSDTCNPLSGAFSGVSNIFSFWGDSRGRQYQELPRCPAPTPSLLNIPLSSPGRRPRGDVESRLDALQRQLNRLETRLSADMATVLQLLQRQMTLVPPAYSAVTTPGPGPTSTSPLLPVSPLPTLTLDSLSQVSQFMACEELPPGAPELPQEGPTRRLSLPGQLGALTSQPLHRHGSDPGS
# T1 sequence (Q12809 whole entry): as above
# Chain of Kv11.1 missense variants, residues 536–628 (Homo sapiens, UniProt Q12809, Y475A) (Q12809 whole entry Y475A, the tested form may be a part): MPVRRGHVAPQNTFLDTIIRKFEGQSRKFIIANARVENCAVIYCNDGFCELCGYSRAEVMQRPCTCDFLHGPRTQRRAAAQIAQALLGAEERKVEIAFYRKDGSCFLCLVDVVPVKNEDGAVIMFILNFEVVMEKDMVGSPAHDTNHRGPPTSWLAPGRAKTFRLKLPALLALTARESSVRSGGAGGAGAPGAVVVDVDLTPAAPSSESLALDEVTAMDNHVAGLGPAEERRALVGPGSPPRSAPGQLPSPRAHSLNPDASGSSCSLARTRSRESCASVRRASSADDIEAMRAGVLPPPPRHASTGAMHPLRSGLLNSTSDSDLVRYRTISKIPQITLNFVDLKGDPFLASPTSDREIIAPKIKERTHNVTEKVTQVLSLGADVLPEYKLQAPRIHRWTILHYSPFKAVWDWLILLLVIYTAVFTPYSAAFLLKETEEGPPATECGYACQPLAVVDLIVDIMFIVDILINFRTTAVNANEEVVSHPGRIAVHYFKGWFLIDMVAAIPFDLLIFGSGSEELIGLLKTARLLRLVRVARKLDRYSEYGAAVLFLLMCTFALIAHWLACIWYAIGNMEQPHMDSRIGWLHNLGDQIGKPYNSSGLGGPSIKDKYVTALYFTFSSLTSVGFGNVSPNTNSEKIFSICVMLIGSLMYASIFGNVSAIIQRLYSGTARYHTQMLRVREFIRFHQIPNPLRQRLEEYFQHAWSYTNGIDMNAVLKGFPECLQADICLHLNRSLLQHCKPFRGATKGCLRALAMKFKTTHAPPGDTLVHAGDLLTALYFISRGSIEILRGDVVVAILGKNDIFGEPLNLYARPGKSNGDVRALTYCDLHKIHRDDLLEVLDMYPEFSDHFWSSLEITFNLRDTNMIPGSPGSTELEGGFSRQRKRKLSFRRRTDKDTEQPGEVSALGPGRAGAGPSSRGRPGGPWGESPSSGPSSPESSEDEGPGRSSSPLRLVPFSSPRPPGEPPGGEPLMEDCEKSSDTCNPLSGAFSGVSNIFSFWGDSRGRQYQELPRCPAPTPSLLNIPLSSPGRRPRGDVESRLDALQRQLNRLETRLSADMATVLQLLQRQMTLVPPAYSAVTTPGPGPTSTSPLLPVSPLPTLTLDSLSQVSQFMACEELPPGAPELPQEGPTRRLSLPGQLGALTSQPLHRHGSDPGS
# Chain of Kv11.1 missense variants, residues 536–628 (Homo sapiens, UniProt Q12809, Y475D) (Q12809 whole entry Y475D, the tested form may be a part): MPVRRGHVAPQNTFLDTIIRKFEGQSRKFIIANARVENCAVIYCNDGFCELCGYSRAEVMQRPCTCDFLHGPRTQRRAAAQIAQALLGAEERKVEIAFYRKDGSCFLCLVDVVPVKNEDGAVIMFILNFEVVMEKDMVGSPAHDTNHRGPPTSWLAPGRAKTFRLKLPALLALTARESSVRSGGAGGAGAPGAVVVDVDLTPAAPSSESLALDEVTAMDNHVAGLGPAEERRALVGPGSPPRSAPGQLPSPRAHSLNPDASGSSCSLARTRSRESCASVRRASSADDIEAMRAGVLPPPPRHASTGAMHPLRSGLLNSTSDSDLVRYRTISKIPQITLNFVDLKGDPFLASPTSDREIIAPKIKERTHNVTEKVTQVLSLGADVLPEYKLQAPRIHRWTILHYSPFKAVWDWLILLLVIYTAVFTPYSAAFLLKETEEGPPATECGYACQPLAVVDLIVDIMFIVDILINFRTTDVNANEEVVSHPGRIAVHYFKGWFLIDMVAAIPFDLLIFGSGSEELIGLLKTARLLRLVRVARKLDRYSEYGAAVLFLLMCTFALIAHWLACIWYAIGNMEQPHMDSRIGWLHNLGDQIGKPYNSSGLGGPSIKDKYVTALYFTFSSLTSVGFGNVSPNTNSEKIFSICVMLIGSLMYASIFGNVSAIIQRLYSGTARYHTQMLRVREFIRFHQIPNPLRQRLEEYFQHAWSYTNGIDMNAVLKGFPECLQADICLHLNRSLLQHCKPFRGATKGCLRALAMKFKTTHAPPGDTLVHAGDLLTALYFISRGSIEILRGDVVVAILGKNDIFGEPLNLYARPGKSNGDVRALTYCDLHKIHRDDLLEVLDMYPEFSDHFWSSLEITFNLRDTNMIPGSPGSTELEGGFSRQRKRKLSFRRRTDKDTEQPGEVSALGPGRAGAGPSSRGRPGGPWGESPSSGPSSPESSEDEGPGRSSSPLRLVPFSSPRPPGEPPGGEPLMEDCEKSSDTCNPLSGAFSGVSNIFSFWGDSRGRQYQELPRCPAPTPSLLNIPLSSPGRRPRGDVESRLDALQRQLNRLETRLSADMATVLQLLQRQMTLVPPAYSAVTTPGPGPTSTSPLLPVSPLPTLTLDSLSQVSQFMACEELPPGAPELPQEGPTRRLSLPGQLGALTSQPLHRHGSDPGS
smiles,measurement,setting,value
"Cc1cc(C)c2c(c1)[C@@H](N(Cc1cc(C(F)(F)F)cc(C(F)(F)F)c1)c1nnn(C)n1)CCCN2C[C@H]1CC[C@H](C(=O)O)CC1 [Evacetrapib, evacetrapib]",peak plasma levels,[1],35 µmol/L
same,EC50,[2],8.2 µM
same,inhibition of WT channels,[3],did not inhibit WT channels
same,Changes in WT function (thallium flux),[4],0.1125 and 0.1113 and 0.1215
same,peak plasma concentrations,[5],1.9 to 8.2 µM
same,score (Figure 6B),[6],25.1035
same,score (Figure 6B),[7],152.736
same,share of the 546 variants rescued by either drug that evacetrapib improved,"[8]; 10 μmol/L, 24 hours",45%
same,share of known pathogenic variants in the pore region with improved trafficking,[8]; 16 out of 94,17%
same,share of all trafficking-deficient variants in this channel segment with improved trafficking,"[8]; 248 out of 971, 10 μmol/L, 24 hours",25%
same,number of trafficking-deficient variants with improved trafficking,"[8]; of 971 variants with ≥90% loss of surface expression, 10 μmol/L, 24 hours",248
same,number of known pathogenic variants in the pore region with improved trafficking,"[8]; out of 94, 10 μmol/L, 24 hours",16
same,mean QT interval compared to placebo,"[9]; 71 healthy patients, thorough QT study",did not significantly shorten the mean QT interval
same,shorter QT interval compared with baseline,[9]; at 12 hours,7 ms
same,Figure 5B value per cell vs Time,[10]; Time 480,-0.4681 and -0.2647 and -0.2507 and -0.1972 and -0.3239 and -0.2271
same,Figure 5B value per cell vs Time,[10]; Time 540,-0.5284 and -0.3222 and -0.285 and -0.2169 and -0.3896 and -0.2816
same,Figure 5B value per cell vs Time,[10]; Time 600,-0.588 and -0.3629 and -0.3374 and -0.2423 and -0.4551 and -0.3284
same,Figure 5B value per cell vs Time,[10]; Time 660,-0.6518 and -0.4077 and -0.3785 and -0.3017 and -0.5218 and -0.3806
same,Figure 5B value per cell vs Time,[10]; Time 720,-0.7017 and -0.4517 and -0.4377 and -0.3271 and -0.5811 and -0.4215
same,Figure 5B value per cell vs Time,[10]; Time 780,-0.7446 and -0.5087 and -0.4704 and -0.3371 and -0.6312 and -0.4754
same,Figure 5B value per cell vs Time,[10]; Time 840,-0.7775 and -0.545 and -0.522 and -0.4074 and -0.6797 and -0.5211
same,Figure 5B value per cell vs Time,[10]; Time 900,-0.7865 and -0.5874 and -0.5479 and -0.435 and -0.735 and -0.566
same,Figure 5B value per cell vs Time,[10]; Time 960,-0.833 and -0.6254 and -0.582 and -0.4724 and -0.7754 and -0.6113
same,Figure 5B value per cell vs Time,[10]; Time 1020,-0.8444 and -0.6633 and -0.6057 and -0.489 and -0.8272 and -0.6494
same,Figure 5B value per cell vs Time,[10]; Time 1080,-0.8739 and -0.6879 and -0.652 and -0.5518 and -0.8519 and -0.6869
same,Figure 5B value per cell vs Time,[10]; Time 1140,-0.894 and -0.7265 and -0.6824 and -0.5792 and -0.8903 and -0.723
same,Figure 5B value per cell vs Time,[10]; Time 1200,-0.8957 and -0.756 and -0.7067 and -0.6036 and -0.9115 and -0.75
same,Figure 5B value per cell vs Time,[10]; Time 1260,-0.9162 and -0.7845 and -0.7409 and -0.6519 and -0.9274 and -0.7716
same,Figure 5B value per cell vs Time,[10]; Time 1320,-0.9293 and -0.808 and -0.7659 and -0.6564 and -0.944 and -0.7966
same,Figure 5B value per cell vs Time,[10]; Time 1380,-0.9321 and -0.8297 and -0.7811 and -0.6653 and -0.9508 and -0.8202
same,Figure 5B value per cell vs Time,[10]; Time 1440,-0.9456 and -0.8515 and -0.7941 and -0.6916
same,Figure 4B value per cell vs Voltage (mV),[10]; Voltage 0 mV,11.8726 and 11.4943 and 10.3496 and 10.9094 and 10.8921
same,Figure 4B value per cell vs Voltage (mV),[10]; Voltage 10 mV,8.653 and 8.735 and 8.112 and 8.594 and 8.227
same,Figure 4B value per cell vs Voltage (mV),[10]; Voltage 20 mV,6.045 and 6.561 and 6.2 and 6.536 and 6.09
same,Figure 4B value per cell vs Voltage (mV),[10]; Voltage 30 mV,4.263 and 4.813 and 4.589 (2×) and 4.855

# Source: article PMC12643509, “High-throughput screens identify genotype-specific therapeutics for channelopathies” (JCI Insight, 2025)
